Drawing on patent publication US6348461B1, “6,7-asymmetrically disubstituted quinoxalinecarboxylic acid derivatives, addition salts thereof, and processes for the preparation of both” (Kyorin Pharmaceutical Co., Ltd., priority 1997, dated 2002), this text covers melting point for 33 compounds.

Structures can show the parent of a compound that is named as a salt. Where only a bound is given, the exact number is not on record here.

The term melting point denotes the temperature, or range, at which the solid turns liquid.

For the compound `O=C(O)c1nc2cc(Oc3cccc([N+](=O)[O-])c3)c([N+](=O)[O-])cc2[nH]c1=O`, the melting point is 198 to 200 °C (dec.). The result for `O=C(O)c1nc2cc(CN3CCOCC3)c([N+](=O)[O-])cc2[nH]c1=O` (as salt: hydrochloride) [Example 160, 3,4-Dihydro-7-(morpholine-1-yl)methyl-6-nitro-3-oxoquinoxaline-2-carboxylic Acid Hydrochloride] reads 209 to 211 °C (dec.). Then `O=C(NCc1cn(-c2cc3nc(C(=O)O)c(=O)[nH]c3cc2[N+](=O)[O-])cn1)Nc1ccc(C(=O)O)cc1` (as salt: salt) [Example 119, 7-(4-(((4-Carboxyphenyl)aminocarbonylamino)methyl)imidazolyl)-3,4-dihydro-6-nitro-3-oxoquinoxaline-2-carboxylic Acid], with 300 °C (dec.).

For the compound `O=C(NCc1cn(-c2cc3nc(C(=O)O)c(=O)[nH]c3cc2C(F)(F)F)cn1)Nc1ccc(C(=O)O)cc1` (as salt: salt) [Example 207, 7-(4-(((4-Carboxyphenyl)aminocarbonylamino)methyl)imidazole-1-yl)-3,4-dihydro-3-oxo-6-trifluoromethylquinoxaline-2-carboxylic Acid], the melting point is 255 °C (dec.). With `O=C(O)c1nc2cc(N3CCN(c4ccc(F)cc4)CC3)c([N+](=O)[O-])cc2[nH]c1=O` [Example 54, 3,4-Dihydro-7-(4-(4-fluorophenyl)piperazine-1-yl)-6-nitro-3-oxoquinoxaline-2-carboxylic Acid], the melting point was in the range of 235.5 to 237.5 °C. The result for `COc1ccccc1N1CCN(c2cc3nc(C(=O)O)c(=O)[nH]c3cc2[N+](=O)[O-])CC1` [Example 59, 3,4-Dihydro-7-(4-(2-methoxyphenyl)piperazine-1-yl)-6-nitro-3-oxoquinoxaline-2-carboxylic Acid] reads 204 to 206 °C. Compound `O=C(O)c1nc2cc(N3CCN(Cc4ccccc4)CC3)c([N+](=O)[O-])cc2[nH]c1=O` [Example 60, 7-(4-Benzylpiperazine-1-yl)-3,4-dihydro-6-nitro-3-oxoquinoxaline-2-carboxylic Acid] gave a melting point of 278 to 280 °C. `O=C(O)c1nc2cc(N3CCC(O)CC3)c([N+](=O)[O-])cc2[nH]c1=O` [Example 61, 3,4-Dihydro-7-(4-hydroxypiperidine-1-yl)-6-nitro-3-oxoqinoxaline-2-carboxylic Acid] had a melting point of 253 to 255 °C.

The compound `CN(C)Cc1cc2nc(C(=O)O)c(=O)[nH]c2cc1[N+](=O)[O-]` [Example 67, 3,4-Dihydro-7-dimethylaminomethyl-6-nitro-3-oxoquinoxaline-2-carboxylic Acid] had a melting point of more than 300 °C.

`NC(=O)c1nc2cc(F)c([N+](=O)[O-])cc2[nH]c1=O` [Example 69, 3,4-Dihydro-7-fluoro-6-nitro-3-oxoquinoxaline-2-carboxamide]: the melting point was more than 300 °C. Then `NC(=O)c1nc2cc(-n3ccc(=O)cc3)c([N+](=O)[O-])cc2[nH]c1=O` [Example 70, 3,4-Dihydro-6-nitro-3-oxo-7-(4-pyridone-1-yl)quinoxaline-2-carboxamide], with more than 300 °C; and `Nc1cc2[nH]c(=O)c(C(=O)O)nc2cc1F` [Example 72, 6-Amino-3,4-dihydro-7-fluoro-3-oxoquinoxaline-2-carboxylic Acid], with more than 300 °C. For the compound `O=C(NCc1ccn(-c2cc3nc(C(=O)O)c(=O)[nH]c3cc2C(F)(F)F)c1)Nc1ccc(C(=O)O)cc1` [Example 79, 7-(3-(((4-Carboxyphenyl)aminocarbonylamino)-methyl)pyrrole-1-yl)-3,4-dihydro-3-oxo-6-trifluoromethylquinoxaline-2-carboxylic Acid], the melting point is 234 to 236 °C (dec.).

`O=C(NCc1ccn(-c2cc3nc(C(=O)O)c(=O)[nH]c3cc2C(F)(F)F)c1)Nc1ccc(C(=O)O)cc1F` [Example 80, 7-(3-(((4-Carboxy-2-fluorophenyl)aminocarbonylamino)-methyl)pyrrole-1-yl)-3,4-dihydro-3-oxo-6-trifluoromethylquinoxaline-2-carboxylic Acid]: the melting point is 249 to 251 °C (dec.). The result for `O=C(Nc1ccc(Br)cc1)OCc1cn(-c2cc3nc(C(=O)O)c(=O)[nH]c3cc2[N+](=O)[O-])cn1` [Example 86, 7-(4-((N-(4-Bromophenyl)carbamoyloxy)methyl)imidazolyl)-3,4-dihydro-6-nitro-3-oxoquinoxaline-2-carboxylic Acid] reads 270 to 272 °C (dec.); that for `COc1ccc(NC(=O)OCc2cn(-c3cc4nc(C(=O)[O-])c(=O)[nH]c4cc3[N+](=O)[O-])cn2)cc1.[Na+]` [Example 108], 265 to 267 °C (dec.). Then `O=C(Nc1cccc(C(=O)O)c1)OCc1cn(-c2cc3nc(C(=O)O)c(=O)[nH]c3cc2[N+](=O)[O-])cn1` [Example 116, 7-(4-((N-(3-Carboxyphenyl)carbamoyloxy)methyl)imidazolyl)-3,4-dihydro-6-nitro-3-oxoquinoxaline-2-carboxylic Acid], with 272 to 274 °C (dec.). Then `O=C(NCc1cn(-c2cc3nc(C(=O)O)c(=O)[nH]c3cc2[N+](=O)[O-])cn1)Nc1ccccc1F` [Example 118, 3,4-Dihydro-7-(4-(((2-fluorophenyl)aminocarbonylamino)methyl)imidazolyl)-6-nitro-3-oxoquinoxaline-2-carboxylic Acid], with 300 °C.

Turning to `O=C(Nc1cccc(C(=O)O)c1)OCc1cn(-c2cc3nc(C(=O)O)c(=O)[nH]c3cc2[N+](=O)[O-])ccc1=O` [Example 125, 7-(3-((N-(3-Carboxyphenyl)carbamoyloxy)methyl)-4-pyridone-1-yl)-3,4-dihydro-6-nitro-3-oxoquinoxaline-2-carboxylic Acid], the melting point was 250 to 252 °C (dec.). The result for `O=C(Nc1ccc(Br)cc1)Nc1cn(-c2cc3nc(C(=O)O)c(=O)[nH]c3cc2[N+](=O)[O-])ccc1=O` [Example 128, 7-(3-((4-Bromophenyl)aminocarbonylamino)-4-pyridone-1-yl)-3,4-dihydro-6-nitro-3-oxoquinoxaline-2-carboxylic Acid] reads 252 to 254 °C (dec.). Then `O=C(Nc1ccccc1)Nc1cn(-c2cc3nc(C(=O)O)c(=O)[nH]c3cc2[N+](=O)[O-])ccc1=O` [Example 129, 3,4-Dihydro-6-nitro-3-oxo-7-(3-(phenylaminocarbonylamino)-4-pyridone-1-yl)quinoxaline-2-carboxylic Acid], with 282 to 284 °C (dec.); and `O=C(Cc1ccc(Br)cc1)Nc1cn(-c2cc3nc(C(=O)O)c(=O)[nH]c3cc2[N+](=O)[O-])ccc1=O` [Example 136, 7-(3-((4-Bromobenzyl)carbonylamino)-4-pyridone-1-yl)-3,4-dihydro-6-nitro-3-oxoquinoxaline-2-carboxylic Acid], with 240 to 242 °C (dec.). As to `O=C(c1nc2cc(N3CCOCC3)c([N+](=O)[O-])cc2[nH]c1=O)N1CCOCC1` [Example 138, 3,4-Dihydro-7-morpholino-6-nitro-3-oxoquinoxaline-2-carboxylic Morpholineamide], the melting point fell in the range of 298 to 299 °C. The result for `Nc1cn(-c2cc3nc(C(=O)O)c(=O)[nH]c3cc2[N+](=O)[O-])ccc1=O` [Example 142, 7-(3-Amino-4-pyridone-1-yl)-3,4-dihydro-6-nitro-3-oxoquinoxaline-2-carboxylic Acid] reads more than 300 °C; that for `Nc1cc2nc(C(=O)O)c(=O)[nH]c2cc1[N+](=O)[O-]` [Example 157, 7-Amino-3,4-dihydro-6-nitro-3-oxoquinoxaline-2-carboxylic Acid], 300 °C; that for `Cn1c(=O)c(C(=O)O)nc2cc(F)c([N+](=O)[O-])cc21` [Example 162, 3,4-Dihydro-7-fluoro-4-methyl-6-nitro-3-oxoquinoxaline-2-carboxylic Acid], 173 to 175 °C. In the case of `O=C(O)c1nc2cc(C(F)(F)F)c([N+](=O)[O-])cc2[nH]c1=O` [Example 163, 3,4-Dihydro-6-nitro-3-oxo-7-trifluoromethylquinoxaline-2-carboxylic Acid], the melting point was 213 to 215 °C (dec.).

Turning to `Nc1cc2nc(C(=O)O)c(=O)[nH]c2cc1C(F)(F)F` [Example 164, 7-Amino-3,4-dihydro-3-oxo-6-trifluoromethylquinoxaline-2-carboxylic Acid], the melting point was 218 to 220 °C (dec.). Take `O=C(O)c1nc2cc(-n3ccnc3)c(C(F)(F)F)cc2[nH]c1=O` [Example 168, 3,4-Dihydro-7-imidazolyl-3-oxo-6-trifluoromethylquinoxaline-2-carboxylic Acid]: the melting point is 232 to 234 °C (dec.).

On to `O=C(O)c1nc2cc(-n3ccc(=O)cc3)c(C(F)(F)F)cc2[nH]c1=O` [Example 169, 3,4-Dihydro-3-oxo-7-(4-pyridone-1-yl)-6-trifluoro-methylquinoxaline-2-carboxylic Acid], for which the melting point worked out at 300 °C. The result for `O=C(NCc1ccn(-c2cc3nc(C(=O)O)c(=O)[nH]c3cc2C(F)(F)F)c1)Nc1ccc(Br)cc1` [Example 185, 7-(3-(((4-Bromophenyl)aminocarbonylamino)methyl)pyrrole-1-yl)-3,4-dihydro-3-oxo-6-trifluoromethylquinoxaline-2-carboxylic Acid] reads 196 to 198 °C (dec.). Then `O=C(NCc1ccn(-c2cc3nc(C(=O)O)c(=O)[nH]c3cc2C(F)(F)F)c1)Nc1cccc(C(=O)O)c1` [Example 187, 7-(3-(((3-Carboxyphenyl)aminocarbonylamino)methyl)pyrrole-1-yl)-3,4-dihydro-3-oxo-6-trifluoromethylquinoxaline-2-carboxylic Acid], with 300 °C; and `O=C(NCc1ccn(-c2cc3nc(C(=O)O)c(=O)[nH]c3cc2C(F)(F)F)c1)Nc1ccccc1` [Example 188, 3,4-Dihydro-3-oxo-7-(3-((phenylaminocarbonylamino)methyl)pyrrole-1-yl)-6-trifluoromethylquinoxaline-2-carboxylic Acid], with more than 300 °C.
